Measurements from patent US9376420B2 (YUHAN CORPORATION, priority 2012, dated 2016).

Biological target: T1, human LXRβ (Homo sapiens, UniProt P55055)
T1 construct: expressed in transfected cells; host or cells: HEK293 cells (ATCC CRL-1573), transient transfection with pFA-hLXRβ/GAL4 and pUAS
T1 sequence (P55055 222-460 limits assumed): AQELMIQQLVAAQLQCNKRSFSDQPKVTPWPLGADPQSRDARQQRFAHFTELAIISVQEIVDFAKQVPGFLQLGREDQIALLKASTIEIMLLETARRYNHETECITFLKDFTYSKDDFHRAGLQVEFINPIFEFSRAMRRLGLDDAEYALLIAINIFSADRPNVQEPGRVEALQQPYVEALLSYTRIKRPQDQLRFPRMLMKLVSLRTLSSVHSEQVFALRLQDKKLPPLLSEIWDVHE
Assay: Assay for Transcriptional Activity of LXRβ (GAL4-hLXRβ LBD luciferase reporter, transient transfection)
Assay type: cell-based
Conditions: HEK293 cells transfected with pFA-hLXRβ/GAL4 and pUAS, 24 hours; for Emax: fold value in comparison with the control (DMSO-treated group); for EC50: increase of transcriptional activity of LXRβ, average of three independent tests
Outline: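 EC50 values, averaged over three independent runs, come from a four-parameter fit of 9-point half-log curves spanning 0.01–50 μM. Luciferase output was read in lysed HEK293 cells 24 h after dosing at 37 °C, following transient transfection with a GAL4-human LXRβ LBD fusion plus GAL4-responsive reporter.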

Row | SMILES | Emax [fold] | EC50 [nM]
1 | O=S(=O)(C1CCCC1)N1CC=C(c2ccc(C3CC(C(O)(C(F)(F)F)C(F)(F)F)=NN3c3ccccc3Cl)cc2)CC1 (stereo not drawn) [Example 306, 1-(2-chloro-phenyl)-5-[4-(1-cyclopentanesulfonyl-1,2,3,6-tetrahydropyridin-4-yl)-phenyl]-3-[di-(trifluoromethyl)-hydroxy-methyl]-4,5-dihydro-1H-pyrazole] | 59 | 1250
2 | O=S(=O)(C1CCCCC1)N1CC=C(c2ccc(C3CC(C(O)(C(F)(F)F)C(F)(F)F)=NN3c3ccccc3Cl)cc2)CC1 (stereo not drawn) [Example 307, 1-(2-chloro-phenyl)-5-[4-(1-cyclohexanesulfonyl-1,2,3,6-tetrahydropyridin-4-yl)-phenyl]-3-[di-(trifluoromethyl)-hydroxy-methyl]-4,5-dihydro-1H-pyrazole] | 52 | 5470
3 | O=S(=O)(N1CC=C(c2ccc(C3CC(C(O)(C(F)(F)F)C(F)(F)F)=NN3c3ccccc3Cl)cc2)CC1)N1CCCC1 (stereo not drawn) [Example 308, 1-(2-chloro-phenyl)-5-{4-[1-(pyrrolidine-1-sulfonyl)-1,2,3,6-tetrahydropyridin-4-yl]-phenyl}-3-[di-(trifluoromethyl)-hydroxy-methyl]-4,5-dihydro-1H-pyrazole] | 36 | 495
4 | CC(=O)Nc1cccc(-c2ccc(C3CC(C(O)(C(F)(F)F)C(F)(F)F)=NN3c3ccccc3Cl)cc2)c1 (stereo not drawn) [Example 309, 5-(3′-acetaminobiphenyl-4-yl)-1-(2-chloro-phenyl)-3-[di-(trifluoromethyl)-hydroxy-methyl]-4,5-dihydro-1H-pyrazole] | 84 | 1940
5 | CS(=O)(=O)Nc1cccc(-c2ccc(C3CC(C(O)(C(F)(F)F)C(F)(F)F)=NN3c3ccccc3Cl)cc2)c1 (stereo not drawn) [Example 310, 5-(3′-methanesulfonyl-aminobiphenyl-4-yl)-1-(2-chloro-phenyl)-3-[di-(trifluoromethyl)-hydroxy-methyl]-4,5-dihydro-1H-pyrazole] | 78 | 1150
6 | CS(=O)(=O)N1CCN(c2ccc(C3CC(C(O)(C(F)(F)F)C(F)(F)F)=NN3c3ccccc3Cl)cc2)CC1 (stereo not drawn) [Example 312, 1-(2-chloro-phenyl)-5-[4-(4-methanesulfonyl-piperazin-1-yl)-phenyl]-3-[di-(trifluoromethyl)-hydroxy-methyl]-4,5-dihydro-1H-pyrazole] | 46 | 2540
7 | CCS(=O)(=O)N1CCN(c2ccc(C3CC(C(O)(C(F)(F)F)C(F)(F)F)=NN3c3ccccc3Cl)cc2)CC1 (stereo not drawn) [Example 313, 1-(2-chloro-phenyl)-5-[4-(4-ethanesulfonyl-piperazin-1-yl)-phenyl]-3-[di-(trifluoromethyl)-hydroxy-methyl]-4,5-dihydro-1H-pyrazole] | 56 | 1120
8 | CC(C)S(=O)(=O)N1CCN(c2ccc(C3CC(C(O)(C(F)(F)F)C(F)(F)F)=NN3c3ccccc3Cl)cc2)CC1 (stereo not drawn) [Example 314, 1-(2-chloro-phenyl)-5-[4-(4-isopropylsulfonyl-piperazin-1-yl)-phenyl]-3-[di-(trifluoromethyl)-hydroxy-methyl]-4,5-dihydro-1H-pyrazole] | 59 | 883
9 | O=S(=O)(C1CC1)N1CCN(c2ccc(C3CC(C(O)(C(F)(F)F)C(F)(F)F)=NN3c3ccccc3Cl)cc2)CC1 (stereo not drawn) [Example 315, 1-(2-chloro-phenyl)-5-[4-(4-cyclopropanesulfonyl-piperazin-1-yl)-phenyl]-3-[di-(trifluoromethyl)-hydroxy-methyl]-4,5-dihydro-1H-pyrazole] | 59 | 1490
10 | CN(C)S(=O)(=O)N1CCN(c2ccc(C3CC(C(O)(C(F)(F)F)C(F)(F)F)=NN3c3ccccc3Cl)cc2)CC1 (stereo not drawn) [Example 316, 1-(2-chloro-phenyl)-5-[4-(4-dimethylsulfamoyl-piperazin-1-yl)-phenyl]-3-[di-(trifluoromethyl)-hydroxy-methyl]-4,5-dihydro-1H-pyrazole] | 43 | 706
11 | O=S(=O)(N1CCCC1)N1CCN(c2ccc(C3CC(C(O)(C(F)(F)F)C(F)(F)F)=NN3c3ccccc3Cl)cc2)CC1 (stereo not drawn) [Example 319, 1-(2-chloro-phenyl)-5-{4-[4-(pyrrolidine-1-sulfonyl)-piperazin-1-yl]-phenyl}-3-[di-(trifluoromethyl)-hydroxy-methyl]-4,5-dihydro-1H-pyrazole] | 39 | 1830
12 | CC(C)(O)C(=O)N1CCN(c2ccc(C3CC(C(O)(C(F)(F)F)C(F)(F)F)=NN3c3ccccc3Cl)cc2)CC1 (stereo not drawn) [Example 320, 1-(2-chloro-phenyl)-5-{4-[4-(2-hydroxy-2-methyl-propionyl)-piperazin-1-yl]-phenyl}-3-(di-(trifluoromethyl)-hydroxy-methyl]-4,5-dihydro-1H-pyrazole] | 17 | 1660
13 | CS(=O)(=O)N1CCCN(c2ccc(C3CC(C(O)(C(F)(F)F)C(F)(F)F)=NN3c3ccccc3Cl)cc2)CC1 (stereo not drawn) [Example 322, 1-(2-chloro-phenyl)-5-[4-(4-methanesulfonyl-homopiperazin-1-yl)-phenyl]-3-[di-(trifluoromethyl)-hydroxy-methyl]-4,5-dihydro-1H-pyrazole] | 64 | 778
14 | CCS(=O)(=O)N1CCCN(c2ccc(C3CC(C(O)(C(F)(F)F)C(F)(F)F)=NN3c3ccccc3Cl)cc2)CC1 (stereo not drawn) [Example 323, 1-(2-chloro-phenyl)-5-[4-(4-ethanesulfonyl-homopiperazin-1-yl)-phenyl]-3-[di-(trifluoromethyl)-hydroxy-methyl]-4,5-dihydro-1H-pyrazole] | 54 | 344
15 | CC(C)S(=O)(=O)N1CCCN(c2ccc(C3CC(C(O)(C(F)(F)F)C(F)(F)F)=NN3c3ccccc3Cl)cc2)CC1 (stereo not drawn) [Example 324, 1-(2-chloro-phenyl)-5-[4-(4-isopropylsulfonyl-homopiperazin-1-yl)-phenyl]-3-[di-(trifluoromethyl)-hydroxy-methyl]-4,5-dihydro-1H-pyrazole] | 37 | 3750
16 | O=S(=O)(C1CC1)N1CCCN(c2ccc(C3CC(C(O)(C(F)(F)F)C(F)(F)F)=NN3c3ccccc3Cl)cc2)CC1 (stereo not drawn) [Example 325, 1-(2-chloro-phenyl)-5-[4-(4-cyclopropanesulfonyl-homopiperazin-1-yl)-phenyl]-3-[di-(trifluoromethyl)-hydroxy-methyl]-4,5-dihydro-1H-pyrazole] | 53 | 800
17 | CN(C)S(=O)(=O)N1CCCN(c2ccc(C3CC(C(O)(C(F)(F)F)C(F)(F)F)=NN3c3ccccc3Cl)cc2)CC1 (stereo not drawn) [Example 326, 1-(2-chloro-phenyl)-5-[4-(4-dimethylsulfamoyl-homopiperazin-1-yl)-phenyl]-3-[di-(trifluoromethyl)-hydroxy-methyl]-4,5-dihydro-1H-pyrazole] | 51 | 550
18 | O=S1(=O)CCN(c2ccc(C3CC(C(O)(C(F)(F)F)C(F)(F)F)=NN3c3ccccc3Cl)cc2)CC1 (stereo not drawn) [Example 329, 1-(2-chloro-phenyl)-5-[4-(1,1-dioxo-thiomorpholin-4-yl)-phenyl]-3-[di-(trifluoromethyl)-hydroxy-methyl]-4,5-dihydro-1H-pyrazole] | 39 | 2030
19 | CNCCCS(=O)(=O)c1cccc(-c2ccc(C3CC(C(O)(C(F)(F)F)C(F)(F)F)=NN3c3ccccc3Cl)cc2)c1 (stereo not drawn) [Example 334, 1-(2-chloro-phenyl)-5-{3′-[3-(methyl-amino)-propane-1-sulfonyl]-biphenyl-4-yl}-3-[di-(trifluoromethyl)-hydroxy-methyl]-4,5-dihydro-1H-pyrazole] | 102 | 295
20 | CS(=O)(=O)c1ccc(-c2ccc(C3CC(C(O)(C(F)(F)F)C(F)(F)F)=NN3c3ccccc3Cl)cc2)cn1 (stereo not drawn) [Example 335, 1-(2-chloro-phenyl)-5-[4-(6-methanesulfonyl-pyridin-3-yl)-phenyl]-3-[di-(trifluoromethyl)-hydroxy-methyl]-4,5-dihydro-1H-pyrazole] | 94 | 136
21 | CCOc1cccc(-c2ccc(C3CC(C(O)(C(F)(F)F)C(F)(F)F)=NN3c3ccccc3F)cc2)c1 (stereo not drawn) [Example 336, 5-(3′-ethoxy-biphenyl-4-yl)-1-(2-fluoro-phenyl)-3-[di-(trifluoromethyl)-hydroxy-methyl]-4,5-dihydro-1H-pyrazole] | 72 | 1470
22 | CCOc1cccc(-c2ccc(C3CC(C(O)(C(F)(F)F)C(F)(F)F)=NN3c3ccc(F)cc3F)cc2)c1 (stereo not drawn) [Example 337, 5-(3′-ethoxy-biphenyl-4-yl)-1-(2,4-difluoro-phenyl)-3-[di-(trifluoromethyl)-hydroxy-methyl]-4,5-dihydro-1H-pyrazole] | 80 | 1070
23 | CSc1cccc(-c2ccc(C3CC(C(O)(C(F)(F)F)C(F)(F)F)=NN3c3ccccc3Cl)c(F)c2)c1 (stereo not drawn) [Example 338, 1-(2-chloro-phenyl)-5-(3-fluoro-3′-methylsulfanyl-biphenyl-4-yl)-3-[di-(trifluoromethyl)-hydroxy-methyl]-4,5-dihydro-1H-pyrazole] | 87 | 850
24 | CCOc1cccc(-c2ccc(C3CC(C(O)(C(F)(F)F)C(F)(F)F)=NN3c3ccccc3Cl)c(F)c2)c1 (stereo not drawn) [Example 339, 1-(2-chloro-phenyl)-5-(3′-ethoxy-3-fluoro-biphenyl-4-yl)-3-[di-(trifluoromethyl)-hydroxy-methyl]-4,5-dihydro-1H-pyrazole] | 71 | 1110
